pIC50: −log10 of the molar value.
How the values were obtained:
Toll-like receptor 4 [1] = target: Toll-like receptor 4 (Homo sapiens, UniProt O00206); assay: Antagonist activity at TLR4 in human PBMC cells assessed as reduction in IL-6 level measured after 20 hrs by AlphaLISA assay; assay type: cell-based
Toll-like receptor 4 [2] = target: T1, Toll-like receptor 4 (Mus musculus, UniProt Q9QUK6); assay: Antagonist activity at TLR4 in mouse Splenocyte assessed as reduction IL-6 level measured after 20 hrs by Spectramax M5 method; assay type: cell-based
T1 sequence (Q9QUK6 whole entry): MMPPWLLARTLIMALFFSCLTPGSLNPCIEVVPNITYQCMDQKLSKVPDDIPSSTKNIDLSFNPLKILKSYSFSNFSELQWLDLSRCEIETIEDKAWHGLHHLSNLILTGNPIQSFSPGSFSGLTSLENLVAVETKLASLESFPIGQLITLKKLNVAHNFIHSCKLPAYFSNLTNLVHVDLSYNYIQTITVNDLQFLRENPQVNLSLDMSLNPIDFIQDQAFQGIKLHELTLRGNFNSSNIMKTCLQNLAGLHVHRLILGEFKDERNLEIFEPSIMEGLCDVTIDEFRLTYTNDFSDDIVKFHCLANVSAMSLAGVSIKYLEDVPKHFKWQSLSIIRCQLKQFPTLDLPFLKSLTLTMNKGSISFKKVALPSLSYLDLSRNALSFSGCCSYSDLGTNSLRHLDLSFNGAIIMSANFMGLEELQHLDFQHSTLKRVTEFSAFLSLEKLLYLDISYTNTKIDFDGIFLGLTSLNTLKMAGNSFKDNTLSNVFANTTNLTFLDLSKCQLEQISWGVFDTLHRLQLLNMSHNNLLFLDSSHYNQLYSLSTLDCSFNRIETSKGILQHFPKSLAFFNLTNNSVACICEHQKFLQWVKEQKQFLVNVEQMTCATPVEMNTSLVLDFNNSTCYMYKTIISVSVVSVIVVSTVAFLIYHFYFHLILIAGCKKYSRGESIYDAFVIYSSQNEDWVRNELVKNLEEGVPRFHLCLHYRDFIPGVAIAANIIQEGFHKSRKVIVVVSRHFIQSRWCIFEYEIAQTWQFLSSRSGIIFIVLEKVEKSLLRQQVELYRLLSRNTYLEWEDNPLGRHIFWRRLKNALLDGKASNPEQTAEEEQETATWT

Toll-like receptor 4 (Homo sapiens, UniProt O00206), sequence (O00206 whole entry): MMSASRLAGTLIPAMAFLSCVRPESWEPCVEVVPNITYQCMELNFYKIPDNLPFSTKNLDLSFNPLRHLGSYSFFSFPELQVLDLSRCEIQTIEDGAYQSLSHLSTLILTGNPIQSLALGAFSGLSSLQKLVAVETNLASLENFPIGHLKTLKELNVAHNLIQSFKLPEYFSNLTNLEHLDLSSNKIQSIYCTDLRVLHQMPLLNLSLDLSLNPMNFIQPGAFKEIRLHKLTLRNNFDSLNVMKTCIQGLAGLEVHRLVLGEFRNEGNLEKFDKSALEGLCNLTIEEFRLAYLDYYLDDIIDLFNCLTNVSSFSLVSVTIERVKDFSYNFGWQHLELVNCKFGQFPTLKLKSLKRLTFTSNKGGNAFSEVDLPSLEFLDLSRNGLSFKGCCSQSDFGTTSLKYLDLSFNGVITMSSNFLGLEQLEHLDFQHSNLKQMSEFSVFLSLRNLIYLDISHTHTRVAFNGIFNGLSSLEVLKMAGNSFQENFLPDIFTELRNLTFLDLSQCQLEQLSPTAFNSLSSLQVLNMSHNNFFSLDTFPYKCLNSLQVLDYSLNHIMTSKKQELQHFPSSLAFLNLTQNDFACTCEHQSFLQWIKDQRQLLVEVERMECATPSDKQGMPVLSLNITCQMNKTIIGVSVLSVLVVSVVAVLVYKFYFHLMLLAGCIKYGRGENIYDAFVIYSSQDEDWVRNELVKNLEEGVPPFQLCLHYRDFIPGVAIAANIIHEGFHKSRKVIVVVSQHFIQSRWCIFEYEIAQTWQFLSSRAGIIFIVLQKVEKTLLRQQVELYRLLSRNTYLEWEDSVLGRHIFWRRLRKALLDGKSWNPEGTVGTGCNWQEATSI

Cc1cc(N2CCc3c(c(C)nn3CC34CCC(NC(=O)[C@@H]5COCCN5)(CC3)CC4)C2)c2cnn(C)c2n1 [MHV-370]
pIC50 (Toll-like receptor 4 [1]): < 5.00 | pIC50 (Toll-like receptor 4 [2]): < 5.00

Reference: ChEMBL document CHEMBL5360657, “Discovery of the TLR7/8 Antagonist MHV370 for Treatment of Systemic Autoimmune Diseases” (ACS Med Chem Lett, 2023)
